Broadly, the EC50 is the midpoint of the concentration-response curve. Broadly, the IC50 is the concentration that inhibits the measured activity by half.

For assay [1], the system named is endogenous cellular STAT1 (phosphorylated at Tyr701) in NCI-H1373 cells. Kind of assay: Phospho-STAT1 (Tyr701) LANCE Ultra TR-FRET Detection Assay. It is filed as cell-based. The conditions noted are these: Homo sapiens, NCI-H1373, 48 h, phospho-STAT1 (Tyr701) induction, read-out: NH1373 pSTAT1 EC50. (Time-resolved FRET reads energy transfer from a long-lived donor to a nearby acceptor.)

The target of assay [2] is T1, PARP7 (Homo sapiens, UniProt Q7Z3E1).
T1 sequence (Q7Z3E1 1-657): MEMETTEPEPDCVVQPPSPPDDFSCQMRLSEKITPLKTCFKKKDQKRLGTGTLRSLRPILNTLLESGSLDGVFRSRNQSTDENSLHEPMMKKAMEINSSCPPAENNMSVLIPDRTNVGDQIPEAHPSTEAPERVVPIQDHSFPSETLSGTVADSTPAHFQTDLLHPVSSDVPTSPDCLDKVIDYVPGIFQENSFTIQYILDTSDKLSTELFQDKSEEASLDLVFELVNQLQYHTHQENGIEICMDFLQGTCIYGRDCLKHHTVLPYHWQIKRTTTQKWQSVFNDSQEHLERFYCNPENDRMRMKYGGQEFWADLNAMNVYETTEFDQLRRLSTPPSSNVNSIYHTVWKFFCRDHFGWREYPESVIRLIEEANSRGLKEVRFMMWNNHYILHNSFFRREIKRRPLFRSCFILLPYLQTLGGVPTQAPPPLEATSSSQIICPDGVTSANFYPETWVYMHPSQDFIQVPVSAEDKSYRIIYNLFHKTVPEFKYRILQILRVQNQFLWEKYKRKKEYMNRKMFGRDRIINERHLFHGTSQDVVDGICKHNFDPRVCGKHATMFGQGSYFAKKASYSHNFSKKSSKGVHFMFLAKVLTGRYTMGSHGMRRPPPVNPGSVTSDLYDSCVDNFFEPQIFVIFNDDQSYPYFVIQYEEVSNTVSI
Kind of assay: Probe Displacement Assay for PARP7 (MSD electrochemiluminescent, biotinylated probe RBNO11147). The conditions noted are these: displacement of biotinylated probe RBNO11147 from PARP7 NAD+-binding site; read-out: MSD ProbeDisp PARP7 IC50.

On to `O=c1[nH]ncc(N2C[C@H]3C[C@H]3[C@H]2CCCn2ccc3cc(-c4ccc(C(F)(F)F)cn4)cc(F)c3c2=O)c1C(F)(F)F` [Example 48, 8-fluoro-2-[3-[(1R,2R,5S)-3-[6-oxo-5-(trifluoromethyl)-1H-pyridazin-4-yl]-3-azabicyclo[3.1.0]hexan-2-yl]propyl]-6-[5-(trifluoromethyl)-2-pyridyl]isoquinolin-1-one], for which the EC50 in assay [1] turned out to be 338 nM. For the same compound, in assay [2], the IC50 came out at 0.897 nM.
For `C[C@@H](CCCn1ccc2cc(-c3ncc4cn[nH]c4n3)c(F)cc2c1=O)Nc1cn[nH]c(=O)c1C(F)(F)F` [Example 299, (S)-7-fluoro-2-(4-((6-oxo-5-(trifluoromethyl)-1,6-dihydropyridazin-4-yl)amino)pentyl)-6-(1H-pyrazolo[3,4-d]pyrimidin-6-yl)isoquinolin-1(2H)-one], in that order: 31 nM and 0.221 nM.
Turning to `COc1cnc(-c2cc3ccn(CCC[C@H](C)Nc4cn[nH]c(=O)c4C(F)(F)F)c(=O)c3cc2F)nc1` [Example 22, (S)-7-fluoro-6-(5-methoxypyrimidin-2-yl)-2-(4-((6-oxo-5-(trifluoromethyl)-1,6-dihydropyridazin-4-yl)amino)pentyl)isoquinolin-1(2H)-one], the concentration giving a half-maximal response (EC50) in assay [1] is 71.3 nM. For the same compound, the IC50 in assay [2] was 0.4 nM.
In the case of `CC[C@@H](CCCn1ccc2cc(-c3ncc(C(F)(F)F)cn3)c(F)cc2c1=O)Nc1cn[nH]c(=O)c1C(F)(F)F` [Example 37, 7-fluoro-2-[(4S)-4-[[6-oxo-5-(trifluoromethyl)-1H-pyridazin-4-yl]amino]hexyl]-6-[5-(trifluoromethyl)pyrimidin-2-yl]isoquinolin-1-one], in assay [1], the half-maximal effective concentration (EC50) worked out at 42.7 nM. For the same compound, the IC50 in assay [2] worked out at 0.4 nM.
For the compound `Cc1cc2cc(-c3ncc(C(F)(F)F)cn3)ccc2c(=O)n1CCC[C@H](C)Nc1cn[nH]c(=O)c1C(F)(F)F` [Example 45, 3-methyl-2-[(4S)-4-[[6-oxo-5-(trifluoromethyl)-1H-pyridazin-4-yl]amino]pentyl]-6-[5-(trifluoromethyl)pyrimidin-2-yl]isoquinolin-1-one], in assay [1], the EC50 is 617 nM. For the same compound, the IC50 in assay [2] was 1.19 nM.
`Nc1nc(-c2cc3ccn(C[C@@H]4CCC[C@H](Nc5cn[nH]c(=O)c5C(F)(F)F)C4)c(=O)c3cc2F)ncc1C(F)(F)F` [Example 184, 6-[4-amino-5-(trifluoromethyl)pyrimidin-2-yl]-7-fluoro-2-[[(1R,3S)-3-[[6-oxo-5-(trifluoromethyl)-1H-pyridazin-4-yl]amino]cyclohexyl]methyl]isoquinolin-1-one]: the EC50 in assay [1] came to 1.8 nM. In addition, in assay [2], the half-maximal inhibitory concentration (IC50) turned out to be 0.311 nM.
For `C[C@@H](CCCn1ccc2cc(-c3nc4ccccn4n3)c(F)cc2c1=O)Nc1cn[nH]c(=O)c1C(F)(F)F` [Example 306, (S)-6-([1,2,4]triazolo[1,5-a]pyridin-2-yl)-7-fluoro-2-(4-((6-oxo-5-(trifluoromethyl)-1,6-dihydropyridazin-4-yl)amino)pentyl)isoquinolin-1(2H)-one] the same measures were 2.18 nM and 0.21 nM.
Turning to `C[C@@H](CCCn1ccc2cc(-c3ccc(F)cn3)cc(F)c2c1=O)Nc1cn[nH]c(=O)c1C(F)(F)F` [Example 19, (S)-8-fluoro-6-(5-fluoropyridin-2-yl)-2-(4-((6-oxo-5-(trifluoromethyl)-1,6-dihydropyridazin-4-yl)amino)pentyl)isoquinolin-1(2H)-one], in assay [1], the EC50 was found to be 74.1 nM. The IC50 in assay [2] worked out at 0.3 nM.
Consider `C[C@@H](CCCn1ccc2cc(-c3ncc(CN)cn3)c(F)cc2c1=O)Nc1cn[nH]c(=O)c1C(F)(F)F` [Example 302, (S)-6-(5-(aminomethyl)pyrimidin-2-yl)-7-fluoro-2-(4-((6-oxo-5-(trifluoromethyl)-1,6-dihydropyridazin-4-yl)amino)pentyl)isoquinolin-1(2H)-one], for which, in assay [1], the EC50 was found to be 108 nM. Besides, in assay [2], the concentration for half-maximal inhibition (IC50) was 2.06 nM.
As to `C[C@@H](CCCn1ccc2cc(-c3ccc(OC(F)F)cn3)c(F)c(F)c2c1=O)Nc1cn[nH]c(=O)c1C(F)(F)F` [Example 57, (S)-6-(5-(difluoromethoxy)pyridin-2-yl)-7,8-difluoro-2-(4-((6-oxo-5-(trifluoromethyl)-1,6-dihydropyridazin-4-yl)amino)pentyl)isoquinolin-1(2H)-one], in assay [1], the EC50 came to 144 nM. In assay [2], the IC50 was 0.613 nM.
With `C[C@@H](CCCn1ccc2c(F)c(-c3ccc(C(F)(F)F)cn3)ccc2c1=O)Nc1cn[nH]c(=O)c1C(F)(F)F` [Example 10, 5-fluoro-2-[(4S)-4-[[6-oxo-5-(trifluoromethyl)-1H-pyridazin-4-yl]amino]pentyl]-6-[5-(trifluoromethyl)-2-pyridyl]isoquinolin-1-one], the EC50 in assay [1] was found to be 291 nM. Further, the IC50 in assay [2] was found to be 0.7 nM.
Turning to `C[C@@H](CCCn1ccc2cc(-c3ccc(C4(C#N)CC4)cn3)cc(F)c2c1=O)Nc1cn[nH]c(=O)c1C(F)(F)F` [Example 38, 1-[6-[8-fluoro-1-oxo-2-[(4S)-4-[[6-oxo-5-(trifluoromethyl)-1H-pyridazin-4-yl]amino]pentyl]-6-isoquinolyl]-3-pyridyl]cyclopropanecarbonitrile], the concentration for a half-maximal effect (EC50) in assay [1] amounted to 579 nM. The IC50 in assay [2] came out at 0.3 nM.
For `C[C@@H](CCCn1ccc2cc(-c3ccc(C(F)(F)F)cn3)c(F)cc2c1=O)Nc1cn[nH]c(=O)c1C(F)(F)F` [Example 9, 7-fluoro-2-[(4S)-4-[[6-oxo-5-(trifluoromethyl)-1H-pyridazin-4-yl]amino]pentyl]-6-[5-(trifluoromethyl)-2-pyridyl]isoquinolin-1-one] the same measures were 92.1 nM and 0.4 nM.
In the case of `O=c1[nH]ncc(N[C@H](CCCn2ccc3cc(-c4ncc(Cl)cn4)c(F)cc3c2=O)COC(F)F)c1C(F)(F)F` [Example 381, (R)-6-(5-chloropyrimidin-2-yl)-2-(5-(difluoromethoxy)-4-((6-oxo-5-(trifluoromethyl)-1,6-dihydropyridazin-4-yl)amino)pentyl)-7-fluoroisoquinolin-1(2H)-one], the EC50 in assay [1] came out at 0.885 nM. The IC50 in assay [2] stood at 0.28 nM.
Regarding `C[C@@H](CCCn1ccc2cc(-c3ncc(C(F)(F)F)cn3)c(F)c(F)c2c1=O)Nc1cn[nH]c(=O)c1C(F)(F)F` [Example 20], the EC50 in assay [1] turned out to be 14.6 nM. In assay [2], the IC50 was 0.3 nM.
In the case of `C[C@@H](CCCn1ccc2cc(-c3ncc(C(F)(F)F)c(N4C[C@H](O)C[C@@H]4C)n3)c(F)cc2c1=O)Nc1cn[nH]c(=O)c1C(F)(F)F` [Example 313, 7-fluoro-6-(4-((2S,4R)-4-hydroxy-2-methylpyrrolidin-1-yl)-5-(trifluoromethyl)pyrimidin-2-yl)-2-((S)-4-((6-oxo-5-(trifluoromethyl)-1,6-dihydropyridazin-4-yl)amino)pentyl)isoquinolin-1(2H)-one], the EC50 in assay [1] is 18.4 nM. Besides, the IC50 in assay [2] is 0.192 nM.
As for `C[C@@H](CCCn1ccc2cc(-c3ncc(F)cn3)c(F)c(F)c2c1=O)Nc1cn[nH]c(=O)c1C(F)(F)F` [Example 54, (S)-7,8-difluoro-6-(5-fluoropyrimidin-2-yl)-2-(4-((6-oxo-5-(trifluoromethyl)-1,6-dihydropyridazin-4-yl)amino)pentyl)isoquinolin-1(2H)-one], in assay [1], the EC50 was 156 nM. Besides, the IC50 in assay [2] turned out to be 0.685 nM.
As for `C[C@@H](CCCn1ccc2nc(-c3ccc(C(F)(F)F)cn3)ccc2c1=O)Nc1cn[nH]c(=O)c1C(F)(F)F` [Example 14], in assay [1], the EC50 was 94.3 nM. Further, the IC50 in assay [2] was 0.5 nM.
Consider `C[C@@H](CCCn1cnc2cc(-c3ccc(F)cn3)c(F)cc2c1=O)Nc1cn[nH]c(=O)c1C(F)(F)F` [Example 59, (S)-6-fluoro-7-(5-fluoropyridin-2-yl)-3-(4-((6-oxo-5-(trifluoromethyl)-1,6-dihydropyridazin-4-yl)amino)pentyl)quinazolin-4(3H)-one], for which, in assay [1], the EC50 was 386 nM. Moreover, in assay [2], the IC50 came out at 0.82 nM.
For `C[C@@H](CCCn1ccc2cc(-c3ncc4c(n3)NC(=O)CO4)c(F)cc2c1=O)Nc1cn[nH]c(=O)c1C(F)(F)F` [Example 185, (S)-2-(7-fluoro-1-oxo-2-(4-((6-oxo-5-(trifluoromethyl)-1,6-dihydropyridazin-4-yl)amino)pentyl)-1,2-dihydroisoquinolin-6-yl)-6H-pyrimido[5,4-b][1,4]oxazin-7(8H)-one] the same measures were 1750 nM and 0.11 nM.
For `C[C@@H](CCCn1ccc2cc(-c3cn4ccccc4n3)c(F)cc2c1=O)Nc1cn[nH]c(=O)c1C(F)(F)F` [Example 305, (S)-7-fluoro-6-(imidazo[1,2-a]pyridin-2-yl)-2-(4-((6-oxo-5-(trifluoromethyl)-1,6-dihydropyridazin-4-yl)amino)pentyl)isoquinolin-1(2H)-one], in that order: 57 nM and 0.387 nM.
For `C[C@@H](CCCn1ccc2cc(-c3ccc(C(F)(F)F)cn3)cc(F)c2c1=O)Nc1cn[nH]c(=O)c1C(F)(F)F` [Example 11, 8-fluoro-2-[(4S)-4-[[6-oxo-5-(trifluoromethyl)-1H-pyridazin-4-yl]amino]pentyl]-6-[5-(trifluoromethyl)-2-pyridyl]isoquinolin-1-one], the EC50 in assay [1] was 32.4 nM. Moreover, in assay [2], the IC50 was 0.2 nM.

The values above are taken from patent publication US12459922B2 (Gilead Sciences, Inc., priority 2022, dated 2025).
